Results: patent publication EP1903056A2, “HLA-A1, -A2 -A3, -A24, -B7, and -B44 tumor associated antigen peptides and compositions” (priority 2002, dated 2004)

Assays:
HLA-A*2402 = HLA-A*2402 (Homo sapiens, UniProt P04439, D101N/D140Y/D185E/E176V/E190D/F33S/G103R/G107R/I119L/I121M/I306V/K335N/L105A/L180Q/L300P/N151K/N90K/Q86E/Q94H/R106L/R138H/R89G/T104I/T345S/V100E/W191G/Y123F); experiment: Class I peptide-binding assay, A*2402; conditions: Table 19a, CEA-derived A24 binders
HLA-A*0101 = HLA-A*0101 (Homo sapiens, UniProt P04439, A114D/A174V/A182V/D101N/D185E/E176A/E190D/L180R/Q94H/R68K/S129P/T187R/V100A/V91M/W191G); experiment: Class I peptide-binding assay, A*0101; conditions: Table 18a, CEA-derived A1 binders
cervical cancer patients [1] = conditions: cited from earlier work
B*3501 = B*3501 (Homo sapiens, UniProt P01889, A329T/A93T/A95T/C349S/D201E/D98Y/E176V/E187L/E204Q/E69T/I218V/K202T/L119I/Q94N/R155S/R180L/S121R/S35A/S48A/T118I/V127L/V306I/V36M/Y140S/Y91F); experiment: Class I peptide-binding assay, B*3501
B*5401 = B*5401 (Homo sapiens, UniProt P01889, A329T/C349S/D138N/D201E/E176V/E187T/E204Q/E69G/I76V/K202T/L119W/R155S/R180L/S121T/S35A/S48A/V127L/V306I/V36M/Y140L); experiment: Class I peptide-binding assay, B*5401; conditions: Table 17a
cervical cancer patients [2] = conditions: two weeks after vaccination; PBMC stimulated in vitro with 5 µg/ml PADRE peptide; proliferation index > 5; cited from earlier work
melanoma patients = melanoma patients vaccinated with peptide-pulsed DC or the peptide alone; cited from earlier work

With `CC(C)C[C@H](NC(=O)[C@H](CO)NC(=O)[C@H](CCC(N)=O)NC(=O)CNC(=O)[C@H](CC(N)=O)NC(=O)[C@@H](NC(=O)[C@H](Cc1c[nH]c2ccccc12)NC(=O)[C@H](Cc1c[nH]c2ccccc12)NC(=O)[C@@H](N)CC(C)C)C(C)C)C(=O)O` [compound 283] the IC50 (HLA-A*2402) was 1460 nM.
With `CC[C@H](C)[C@H](N)C(=O)N[C@H](C(=O)N[C@@H](CCC(=O)O)C(=O)N[C@@H](CCCCN)C(=O)N[C@@H](CC(N)=O)C(=O)N[C@@H](CO)C(=O)NCC(=O)N[C@@H](CC(C)C)C(=O)N[C@@H](Cc1ccc(O)cc1)C(=O)O)[C@@H](C)O` [compound 179] the IC50 (HLA-A*0101) was 641 nM.
For `CC(C)C[C@H](NC(=O)[C@@H](NC(=O)[C@H](Cc1c[nH]c2ccccc12)NC(=O)[C@H](C)NC(=O)[C@H](C)NC(=O)[C@@H](NC(=O)[C@H](CC1CCCCC1)NC(=O)[C@H](CCCCN)NC(=O)[C@@H](C)N)C(C)C)[C@@H](C)O)C(=O)N[C@@H](CCCCN)C(=O)N[C@@H](C)C(=O)N[C@@H](C)C(=O)N[C@H](C)C(N)=O` [PADRE, aKXVAAWTLKAAa-NH2], the responding patients (cervical cancer patients [1]; 95% interval 10-65%) is listed as 33% and the safety in trial (cervical cancer patients [1]; patients with recurrent or residual cervical carcinoma) is listed as “favorable safety profile”.
Compound `CC[C@H](C)[C@H](N)C(=O)N1CCC[C@H]1C(=O)N[C@@H](Cc1c[nH]c2ccccc12)C(=O)N[C@@H](CCC(N)=O)C(=O)N[C@@H](CCCNC(=N)N)C(=O)N[C@@H](CC(C)C)C(=O)N[C@@H](CC(C)C)C(=O)N[C@@H](CC(C)C)C(=O)N[C@H](C(=O)N[C@@H](C)C(=O)O)[C@@H](C)O` [CEA.13] has an IC50 (B*3501; Table 17a) of 10000 nM and an IC50 (B*5401) of 32 nM.
For `CC(C)C[C@H](NC(=O)[C@@H](NC(=O)[C@H](Cc1c[nH]c2ccccc12)NC(=O)[C@H](C)NC(=O)[C@H](C)NC(=O)[C@@H](NC(=O)[C@H](CC1CCCCC1)NC(=O)[C@H](CCCCN)NC(=O)[C@@H](C)N)C(C)C)[C@@H](C)O)C(=O)N[C@@H](CCCCN)C(=O)N[C@@H](C)C(=O)N[C@@H](C)C(=O)N[C@H](C)C(N)=O` [aKXVAAWTLKAAa-NH2], the “patients displaying PADRE-specific proliferation” value (cervical cancer patients [2]) is listed as 4/12.
`CC[C@H](C)[C@H](NC(=O)[C@@H]1CCCN1C(=O)[C@H](CC(C)C)NC(=O)[C@@H]1CCCN1C(=O)CNC(=O)[C@H](CCC(=O)O)NC(=O)[C@H](CCCNC(=N)N)NC(=O)[C@@H]1CCCN1C(=O)[C@H](CO)NC(=O)[C@@H]1CCCN1C(=O)[C@@H]1CCCN1)C(=O)O` [Her2/neu.1149.I11] gave an IC50 (B*3501; Table 17b) of 1000 nM.
For `CC[C@H](C)[C@H](NC(=O)[C@@H]1CCCN1C(=O)[C@H](CC(=O)O)NC(=O)[C@@H](NC(=O)[C@@H](N)CCC(=O)O)C(C)C)C(=O)NCC(=O)N[C@@H](Cc1c[nH]cn1)C(=O)N[C@@H](CC(C)C)C(=O)N[C@@H](Cc1ccc(O)cc1)C(=O)O` [MAGE3.168], the “tumor regression in vaccinated patients” value (melanoma patients) is given as “tumor regression was observed”.
In the case of `CC[C@H](C)[C@H](N)C(=O)N1CCC[C@H]1C(=O)N[C@@H](Cc1c[nH]c2ccccc12)C(=O)N[C@@H](CCC(N)=O)C(=O)N[C@@H](CCCNC(=N)N)C(=O)N[C@@H](CC(C)C)C(=O)N[C@@H](CC(C)C)C(=O)N[C@@H](CC(C)C)C(=O)N[C@H](C(=O)N[C@H](C(=O)O)[C@@H](C)CC)[C@@H](C)O` [CEA.13I10], the IC50 (B*3501; Table 17a) is reported as 10000 nM.
With `CC[C@H](C)[C@H](NC(=O)[C@H](CO)NC(=O)[C@H](Cc1ccc(O)cc1)NC(=O)CNC(=O)[C@H](Cc1ccccc1)NC(=O)[C@H](CC(C)C)NC(=O)[C@H](Cc1c[nH]cn1)NC(=O)[C@H](CCC(N)=O)NC(=O)[C@@H]1CCCN1C(=O)[C@@H](N)CC(C)C)C(=O)O` [CEA.58I10] the IC50 (B*3501; Table 17a) was 10000 nM.
